Patent US20100221315A1, “VESICULAR FORMULATIONS CONTAINING ORGANIC ACID PRODRUGS, PROCESS FOR THEIR PREPARATION” (UNIVERSIDADE DE LISBOA, priority 2006, published 2010)
Values after ≈ are worked out from the molar mass of the structure shown. Read-outs that look alike come from different tables or passages of the source.

Columns and labels:
[1] = Incorporation efficiency (EE) in liposomes prepared by hydration of a lipid and drugs film; assay type: physicochemical
Procedure: Different lipids (20 μmol) and the prodrug (2 μmol) were weighed out, transferred to a round-bottom flask, dissolved in chloroform and the organic solvent evaporated using a rotating evaporator to form a lipid film. This film was then dried in a vacuum bomb for the removal of chloroform residues and 1 ml of isotonic phosphate pH 7.4 buffer (PBS) was added at a temperature at least 10° C. higher than the phase transition temperature (TC) of the lipids used. The mixture was stirred for an additional five minutes to complete hydration of the lipid film and, after a few minutes at rest, it was stirred again for a further five minutes.
In order to determine the incorporation efficiency (EE), aliquots of the liposomal suspension after hydration and of the liposomal suspension obtained after centrifugation, supernatant removal and re-suspension of the sediment in its original volume (before being centrifuged) were collected. The EEs were calculated as the ratio between the prodrug concentration in the re-suspended liposome suspension and the prodrug concentration in the initial liposome suspension. Tables 2 to 6 show the EE values obtained for several formulations of different prodrugs.
All the prepared suspensions were checked using an optical phase contrast microscope set at 400× magnification.

[2] = Incorporation efficiency (EE) in liposomes prepared by hydration of a lipid and prodrugs lyophilisate; assay type: physicochemical; conditions: hydration of lipids and prodrugs lyophilisate
Procedure: Solutions were prepared containing 20 μmol of lipids and 2 μmol of prodrug in 10 ml of tert-butanol and were filtered by sterile filtration. These solutions were then frozen in liquid nitrogen and lyophilised for 24 hours.
After lyophilisation, the solutions were hydrated by the addition of 1 ml of PBS at a temperature of at least 10° C. higher than that of the phase transition temperature (TC) of the lipids, using an ultrasound water bath for two minutes. The incorporation efficiencies (EE) were calculated as described above for the liposome preparation carried out by hydration of a lipid film and are shown in Table 7.
All the suspensions produced were checked using an optical microscope set at 400× magnification.

in vitro [3] = assay type: in vitro ADME; conditions: human, plasma
Procedure: 750 μl of plasma, 700 μl of PBS and 50 μl of stock solution of the compound (3.6×10^−3M) were added to each one of the test compounds in the free form in a test tube. The tube was incubated at 37° C. under agitation, and 150 μl aliquots were removed every five minutes, diluted with 600 μl of acetonitrile (ACN), and then centrifuged. The supernatant was removed and injected into an HPLC system. The area values obtained for each chromatogram were used to determine the half-life of each prodrug.
To each liposomal suspension in a test tube, 750 μl of plasma was added and diluted with PBS to a final volume of 3000 μl. The final drug concentration in each tube was 2×10^−3 M. The test tubes were then incubated at 37° C. with agitation and 150 μl aliquots were then removed at set time intervals, diluted with 600 μl of acetonitrile (ACN), and then centrifuged. For the remainder of the process, the same procedure was followed as described above for the free form case.

in vitro [4] = assay type: in vitro ADME; conditions: rat, tissue homogenate
Procedure: For each of the compounds in free form, 50 μl of rat liver homogenate, 1400 μl of PBS and 50 μl of compound stock solution were added (3.6×10^−3 M) in a test tube. The tubes were incubated at 37° C. under agitation, and aliquots of 150 μl were removed every minute, diluted with 600 μl of acetonitrile (ACN), and then centrifuged. The supernatant was removed and placed into the vials of an autosampler and analysed by HPLC.
To each liposomal suspension in a test tube, 50 μl of homogenate was added and diluted with PBS to a final volume of 1500 μl. The final drug concentration was 2×10^−3 M. The test tubes were incubated at 37° C. under agitation and sample collection and analysis were carried out by the same procedure used for determining the stability of liposomal drugs in plasma.

[5] = tested on: Mycobacterium tuberculosis H37Ra; experiment: Determination of the Minimum Inhibitory Concentration (MIC) by successive dilutions; assay type: cell-based; conditions: for MIC: broth, pH 5.5, about 21 days at 37° C.; for fold lower MIC values than those for PZA and POA: in vitro, pH 5.5
Procedure: Mycobacterium tuberculosis H37Ra was used as the reference strain. The esters C12, C14 and C16, pyrazinamide (PZA) and pyrazinoic acid (POA) were prepared in stock solutions of dimethyl sulfoxide (DMSO) at a concentration of 8 mg/ml. The Minimum Inhibitory Concentration was determined by the method of successive dilutions. The culture medium Myco (nutrient Broth-Difco, 10 g/L; Middlebrook 7H9-Difco, 10 g/L, 0,05% glucose and 0.01% of Tween 80) supplemented with OADC (Difco) was used and the pH was adjusted to 5.5.
To each test tube of each stage of the successive dilutions of the test compound, a sufficient volume of bacterial inoculum was added so as to provide a final concentration of 10^4 CFU/ml (CFU=Colony Forming Units). The tubes were incubated for about 21 days at 37° C. The onset of turbidity in the control tube (free of drugs) was checked for on a regular basis. Once turbidity appeared in the control test tube, the results were recorded where the MIC value was defined as the lowest concentration of drug able to inhibit the growth of mycobacteria (note there was a total absence of turbidity in the first test tube of the successive dilution sequence). These tests were performed in triplicate for each test compound. As expected, the MIC for PZA was 100 μg/ml.

M. tuberculosis H37Ra = experiment: Antimycobacterial activity of free and encapsulated compounds in macrophage infected with Mycobacterium tuberculosis; assay type: cell-based; conditions: infected J774.A1 macrophage
Procedure: In evaluating the antimycobacterial activity, a conventional method (Anes et al., Nat Cell Biol, 2003) was employed using a cell culture of […] (cell line J774.A1).
Briefly, the macrophage was plated in a DMEM medium having a high glucose concentration and supplemented with 10% Foetal Bovine Serum, in 24 well tissue culture plates at 37° C. in a 5% carbon dioxide atmosphere. As soon as about 80% confluence was obtained, the cells were infected with M. tuberculosis H37Ra at a rate such that an inoculum concentration of 10^6 mycobacteria/ml per well was obtained.
After 3 hours of bacterial uptake, 1 to 5 bacillus per infected cell and a total of about 10E4-5 bacteria/ml were expected per well. Washing of the infected cultures with pH 7 buffer PBS was then carried out three times in order to eliminate all bacteria non internalised by the macrophage. Fresh DMEM medium was added with and without the test compound.
The incubation period was 7 days using fresh medium every 3 days. The compounds were added after 3 hours of internalization and remained in contact with the infected cells until fresh medium DMEM was added.
After 3 hours, 1 day, 3 days, 5 days and 7 days from the beginning of the infection, intracellular bacteria were recovered for lyses of the infected macrophage with a 1% IGEPAL solution (Sigma) in water. At this concentration, macrophage are lysed with no effect on the viability of the mycobacteria.
After successive dilutions of the lysate with water, the surviving bacteria were cultured in Middlebrook 7H10 medium supplemented with OADC (Difco). After about 2 weeks of incubation at 37° C. the Unity Forming Colonies (UFCs) were counted. Each test was carried out in triplicate in independent experiments.

[6] = lipid formulation DMPC:DMPG (9:1)
[7] = pH 7.4, Half-life (min) Free form
[8] = pH 7.4, Half-life (min) Vesicular form (DMPC)
[9] = Mycobacterium tuberculosis, H37RA, 504 h, pH 5.5, M. tuberculosis H37Ra, read-out: MIC

SMILES | EE (%) incorporation efficiency ([1]; lipid formulation DMPC) [%] | EE (%) incorporation efficiency ([1]; lipid formulation DPPC) [%] | EE (%) incorporation efficiency ([2]; lipid formulation DMPC) [%] | half-life (in vitro [3]; [7]) [h] | half-life (in vitro [3]; [8]) [h] | half-life (in vitro [4]; [7]) [h] | half-life (in vitro [4]; [8]) [h] | MIC [5, 9] [µg/mL] | intracellular bacterial growth after 7 days of infection (M. tuberculosis H37Ra) | other results
CCCCCCCCCCOC(=O)c1ccccc1 [BD, decyl benzoate] | 94.1 | 93.4 | – | – | – | – | – | – | – | –
CCCCCCCCOC(=O)C=Cc1ccccc1 [CO, octyl cinnamate] | 92.2 | 94.5 | – | – | – | – | – | – | – | –
CCCCCCCCCCCCCCNC(=O)c1cnccn1 [Compound A14, N-tetradecyl pyrazinamide] | 95.2 | 96.4 | – | – | – | – | – | – | – | EE (%) incorporation efficiency [1, 6]: 98.6%
CCCCCCCCCCCCCCCCNC(=O)c1cnccn1 [Compound A16, hexadecyl pyrazinamide] | 97.0 | – | – | – | – | – | – | – | – | EE (%) incorporation efficiency ([1]; lipid formulation DMPG:DMPG 9:1): 98.4%; EE (%) incorporation efficiency ([1]; lipid formulation DPPM): 98.1%
CCCCCCCCCCCCOC(=O)c1cnccn1 [Compound C12, dodecyl pyrazinoate] | 94.7 | 93.1 | 95.6 | 0.25 | 1.3 | 0.0333 | 0.9 | 20 to 40 (≈ 68.4 to 137 µM) | latency was observed | EE (%) incorporation efficiency ([1]; lipid formulation DMPC:DMPG (7:3)): 82.7%; EE (%) incorporation efficiency [1, 6]: 87.0%; EE (%) incorporation efficiency ([1]; lipid formulation DPPC:DPPG (7:3)): 90.2%; EE (%) incorporation efficiency ([1]; lipid formulation DPPC:DPPG (9:1)): 87.2%; fold lower MIC values than those for PZA and POA [5]: 10 fold; difference in bactericidal effect between DPPC and DMPC formulations (M. tuberculosis H37Ra; liposomal forms): no such significant differences; increase of bactericidal effect by encapsulation in liposomes relatively to free form (M. tuberculosis H37Ra; FIG. 1B): about 50%; bactericidal effect, comparison of compounds (M. tuberculosis H37Ra; free or vesicular form, FIG. 2A, 2B): greatest bactericidal effect
CCCCCCCCCCCCCCOC(=O)c1cnccn1 [Compound C14, tetradecyl pyrazinoate] | – | – | 98.2 | 0.317 | 2.63 | 0.0667 | 2.82 | 10 to 20 (≈ 31.2 to 62.4 µM) | – | EE (%) incorporation efficiency ([2]; lipid formulation DPPC): 97.4%; fold lower MIC values than those for PZA and POA [5]: 10 fold
CCCCCCCCCCCCCCCCOC(=O)c1cnccn1 [Compound C16, hexadecyl pyrazinoate] | – | – | 97.3 | 1.13 | 3.57 | 0.35 | 12.8 | 20 to 40 (≈ 57.4 to 115 µM) | – | –
O=C(O)c1cnccn1 [POA, pyrazinoic acid, reference compound] | – | – | – | – | – | – | – | 100 to 200 (≈ 806 to 1610 µM) | bacteria recovered their ability of intracellular growth | –
NC(=O)c1cnccn1 [PZA, pyrazinamide, reference compound] | – | – | – | – | – | – | – | 100 (≈ 812 µM) | bacteria recovered their ability of intracellular growth | MIC ([5]; M. tuberculosis H37Ra): 100 to 200 µg/mL
